Data on 1 compound can be found in ChEMBL document CHEMBL1149007, “The Ichthyotoxic Principles of Zanthoxylum clava-herculis” (J Nat Prod, 1986).

The structures appear in SMILES notation.

Usually IC50 stands for the concentration at which inhibition is half-maximal.

The test system of this test is Pimephales promelas. Kind of test: Ichthyotoxicity in Pimephales promelas assessed as mortality measured every 30 mins for 2 hrs. The class given is organism-based.

For `CC(=O)N1CCc2cc3c(c4c2[C@H]1Cc1ccccc1-4)OCO3`, the IC50 worked out at 300 µM.
